The record followed here is patent publication US7816521B2, “1,2,4-benzotriazine-1,4-dioxides” (Auckland Uniservices Limited, priority 2004, dated 2010).

Values after ≈ are worked out from the molar mass of the structure shown.

One may read the solubility as the concentration that dissolves in the medium under given conditions. A lower solubility goes with a poorly soluble substance.

Data set [1] in a line: Solubility in culture medium. The data set is classed as physicochemical. Particulars: culture medium (αMEM with 5% foetal bovine serum), plasma or biological fluid, thermodynamic from solid; culture medium (αMEM, 5% foetal bovine serum), pH 7.4; no unit in table, threshold is 2 mM. The protocol: Solubility is determined in laboratory culture medium (alpha minimal essential medium (αMEM) with 5% foetal bovine serum) saturated with 5% carbon dioxide at pH 7.4, by addition of excess compound and sonication at ambient temperature for 15 minutes. Alternatively the compound is diluted from a concentrated stock solution in DMSO into culture medium to give a final DMSO concentration <1%. The mixture is centrifuged at 13,000 rpm for 6 minutes and the concentration of drug in the supernatant solution is then determined by HPLC using a standard reference solution in a suitable solvent.

For data set [2], the system named is HT29 multicellular layers. The data set is classed as in vitro ADME. To be noted: human. The protocol: A: Diagram of a Millicell® CM culture insert used for growing MCLs on a porous, collagen-coated Teflon membrane. B: H&E-stained transverse section of an HT-29 MCL three days after initiating growth with 10^6 cells. The Teflon membrane is ca 30 μm thick. C: Diffusion apparatus for measurement of transport through MCLs. D: Diffusion of TPZ (100 μM) through well oxygenated (open circles) and […] poorly oxygenated (filled circles) HT29 MCLs of equivalent thickness (141±5 μm). Concentrations are normalized to the initial concentration in the donor compartment (Co). The Lines are fits to a reaction-diffusion model. Also shown is the diffusion of compound #20 through a well oxygenated MCL of a similar thickness illustrating the effect of raising the diffusion coefficient from 4×10^−7 cm^2s^−1 to 1.4×10^−6 cm^2s^−1.
The diffusion coefficients in HT29 MCL (DMCL) of compounds representative of the invention were determined either by: • 1. Measurement of drug diffusion in HT29 MCL (grown in culture inserts and seeded at 1×10^6 cells per insert and grown for 3-4 days) in a 2 chamber diffusion apparatus containing culture medium with measurement from both the donor and receiver compartments and gassing at ≧20% O2 to suppress bioreductive metabolism as described in Hicks et al (Cancer Res. 2003, 63, 5970-5977). Samples of medium are taken at intervals, drug concentrations determined by HPLC or LCMS and the concentration-time profile was fitted to Fick's second law of diffusion and the differential equation was solved numerically to obtain the estimate of DMCL.
OR • 2. Calculated from the logistic regression equation
where • a. Log P7.4 is the base 10 logarithm of the octanol-water partition coefficient of the compound at pH 7.4 measured or calculated using the techniques described below • b. HD is the number of hydrogen bond donors (which is the sum of all NH— and OH-groups) • c. HA is the number of hydrogen bond acceptors (which is the sum of all N— and O-atoms) • d. Mr is the molecular weight of the non-ionised drug and a, g, d, a, x0, e, h, and b are regression coefficients as outlined in the table.
Values of the coefficient g are cell line dependent; this value has been determined as 0.3051 (SE 0.0427, CV 13.99%, p<0.001) for SiHa MCLs, and is set at zero for HT29 MCLs.

Take `Cc1ccc2c(c1)[n+]([O-])c(NCCN(C)C)n[n+]2[O-]` [H, N^1,N^1-Dimethyl-N^2-(6-methyl-1,4-dioxido-1,2,4-benzotriazin-3-yl)-1,2-ethanediamine]: in data set [1], the solubility came out at 52 mM (≈ 13700 µg/mL). Further, the DMCL in data set [2] is 3.99 × 10^−7 cm^2s^−1.

Take `Cc1ccc2c(c1)[n+]([O-])c(N)n[n+]2[O-]` [B, 6-Methyl-1,2,4-benzotriazin-3-amine 1,4-Dioxide]: the solubility in data set [1] stood at 3.02 mM (≈ 580 µg/mL). The DMCL in data set [2] was 5.43 × 10^−7 cm^2s^−1.

In data set [1], `CN(CCCNC(=O)c1cccc2cc3ccccc3nc12)CCCNc1n[n+]([O-])c2ccccc2[n+]1[O-]` [L] had a solubility of 0.45 mM (≈ 230 µg/mL). For the same compound, in data set [2], the DMCL is 3.82 × 10^−7 cm^2s^−1.

`Cc1ccc2c(c1)[n+]([O-])nc(NCCN(C)C)[n+]2[O-]` [F, 7-Methyl-N-[2-(dimethylamino)ethyl]-1,2,4-benzotriazin-3-amine 1,4-Dioxide]: in data set [1], the solubility was 38.7 mM (≈ 10200 µg/mL). The DMCL in data set [2] is given as 5.09 × 10^−7 cm^2s^−1.

`Cc1ccc2c(c1)[n+]([O-])c(NCCCN(C)CCCNC(=O)c1cccc3cc4ccccc4nc13)n[n+]2[O-]` [N] displayed a solubility in data set [1] of 32.4 mM (≈ 17000 µg/mL). Moreover, the DMCL in data set [2] is given as 1.05 × 10^−7 cm^2s^−1.

`COCCc1n[n+]([O-])c2ccccc2[n+]1[O-]` [J] yielded a solubility in data set [1] of 21 mM (≈ 4650 µg/mL). Also, the DMCL in data set [2] was 2.09 × 10^−6 cm^2s^−1.

As for `Nc1n[n+]([O-])c2c(Cl)cccc2[n+]1[O-]` [D, 8-Chloro-1,2,4-benzotriazin-3-amine 1,4-Dioxide], in data set [1], the solubility turned out to be 2.22 mM (≈ 472 µg/mL). The DMCL in data set [2] was 6.69 × 10^−7 cm^2s^−1.

Compound `CN(CCCNC(=O)c1cccc2ccc(-c3ccncc3)nc12)CCCNc1n[n+]([O-])c2ccccc2[n+]1[O-]` [M] came in with a solubility in data set [1] of 3.8 mM (≈ 2050 µg/mL). Also, in data set [2], the DMCL is listed as 9.80 × 10^−8 cm^2s^−1.

In data set [1], `CS(=O)(=O)c1ccc2c(c1)[n+]([O-])nc(N)[n+]2[O-]` [E, 7-(Methylsulfonyl)-1,2,4-benzotriazin-3-amine 1,4-Dioxide] had a solubility of 0.49 mM (≈ 126 µg/mL). Besides, the DMCL in data set [2] is 2.13 × 10^−7 cm^2s^−1.

In turn, `Nc1n[n+]([O-])c2ccccc2[n+]1[O-]` [A, tirapazamine, reference compound] had a solubility in data set [1] of 8.9 mM (≈ 1590 µg/mL). Moreover, the DMCL in data set [2] is given as 3.97 × 10^−7 cm^2s^−1. In data set [2] (100 μM), the diffusion coefficient is 4×10^−7 cm^2s^−1 and the “reduction in diffusion in poorly oxygenated versus well oxygenated HT29 MCLs” value is 2 fold.

In the case of `CCc1n[n+]([O-])c2ccccc2[n+]1[O-]` [I], the concentration in solution in data set [1] (solubility) came to 14.5 mM (≈ 2770 µg/mL). Further, the DMCL in data set [2] was 2.61 × 10^−6 cm^2s^−1.

`[O-][n+]1nc(NCCCCCCNc2c3ccccc3nc3ccccc23)[n+]([O-])c2ccccc21` [K] gave a solubility in data set [1] of 0.024 mM (≈ 10.9 µg/mL). In data set [2], the DMCL is 6.17 × 10^−7 cm^2s^−1.

For the compound `Nc1n[n+]([O-])c2cc(Cl)ccc2[n+]1[O-]` [C, 7-Chloro-1,2,4-benzotriazin-3-amine 1,4-Dioxide], the concentration in solution in data set [1] (solubility) came to 0.09 mM (≈ 19.1 µg/mL). In addition, the DMCL in data set [2] was 8.70 × 10^−7 cm^2s^−1.

Compound `CCCN(CCC)CCNc1n[n+]([O-])c2ccccc2[n+]1[O-]` [G] yielded a solubility in data set [1] of 26 mM (≈ 7940 µg/mL). Also, the DMCL in data set [2] is recorded as 1.71 × 10^−6 cm^2s^−1.
